Laboratory results from patent publication US10774051B2, “6-membered heterocyclic derivatives and pharmaceutical composition comprising the same” (Shionogi & Co., Ltd., priority 2015, dated 2020).
pIC50: −log10 of the molar value.

What follows are molecules tested against human P2X7 receptor (Homo sapiens, UniProt Q99572, R270H/Y155H) (assay: Evaluation of human P2X7 receptor inhibitory activity (Yo-Pro uptake, BzATP stimulation, FLIPR TETRA)). Conditions: 1321N1 cells stably expressing human P2X7 receptor; BzATP stimulation, Yo-Pro uptake; read-out: IC50 (antagonistic activity for the human P2X7 receptor).
Type: cell-based
Protocol: Stably expressing cell line (1321N1 cell transfected with the human P2X7 receptor gene (GenBank accession number NM_002562.5 including T606C and G952A SNP)) was used. The cells were seeded in a 384-well microtiter plate at a concentration of 8000 cells/well and cultured in the medium (10% fetal bovine serum, 25 mM HEPES, 1% penicillin and streptomycin in DMEM) for one day at 37° C. under 5% carbon dioxide atmosphere. After replacing with 20 μL of the HBSS buffer (20 mM HEPES, 55.6 mM D-glucose, 1×HBSS(−), pH7.4-7.5), 15 μL of 17.3 μM Yo-Pro solution in the HBSS buffer was added. The plate was placed in high-throughput cellular screening system FLIPR TETRA (Molecullar Devices, LLC.) and 15 μL of 130 μM BzATP solution in the HBSS buffer was added. Measurement of fluorescence intensity by FLIPR TETRA was started. After eight minutes, 15 μL of DMSO solutions containing different concentrations of the compound of the present invention as prepared by dilution with the HBSS buffer were dispensed to each well through the built-in automatic dispenser, and the measurement of fluorescence intensity was continued for 20 minutes. […] Changing values of fluorescence intensity by the compound of the present invention were calculated by difference between maximum and minimum fluorescence intensity for 20 minutes. Inhibition ratios (%) were calculated from the following equation:
[formula] IC50 was calculated using logistic approximation.
Molecule `COc1cn(Cc2ccc(Cl)cc2)c(Nc2cc(C)c(C)cc2C)nc1=O` [Compound I-0193] has a pIC50 of 7.74.
Molecule `CCc1cc2c(cc1Nc1nc(=O)c(OC)cn1Cc1ccc(Cl)cc1)CCC2` [Compound I-0195] has a pIC50 of 7.59.
`CCOC(=O)c1cn(Cc2ccccc2)c(Nc2cc(C)c(C)cc2C)nc1=O` [Compound I-0196] showed a pIC50 of 7.89.
`Cc1c(Cl)cccc1Nc1nc(=O)c(O)cn1Cc1ccccc1` [Compound I-0203] was tested, and the pIC50 was 7.74.
`Cc1cc(C)c(Nc2nc(=O)c(C(=O)O)cn2Cc2ccccc2)cc1C` [Compound I-0205] gave a pIC50 of 7.04.
With `Cc1ccc(N2CCCS2(=O)=O)cc1Nc1nc(=O)c(F)cn1Cc1ccc(F)cc1` [Compound I-0207] the pIC50 was 8.05.
In the case of `Cc1cc(C)c(Nc2nc(=O)c(C(N)=O)cn2Cc2ccccc2)cc1C` [Compound I-0218], the pIC50 was 7.72.

Same assay, conditions: 1321N1 cells stably expressing human P2X7 receptor; BzATP stimulation, Yo-Pro uptake; read-out: IC50 (antagonistic activity for the human P2X7 receptor), class symbol
Molecule `COc1cn(Cc2ccccc2Cl)c(Nc2cc(C)c(C)cc2C)nc1=O` [Compound I-0192] has a pIC50 of 7.00 to 8.00.
Work on `CCc1cc2c(cc1Nc1nc(=O)c(OC)cn1Cc1ccccc1Cl)CCC2` [Compound I-0194] yielded a pIC50 of 7.00 to 8.00.
For `COc1cn(Cc2ccccc2)c(Nc2cccc(Oc3ccccn3)c2C)nc1=O` [Compound I-0198], the pIC50 was 6.30 to 7.00.
Molecule `CCc1ccccc1Nc1nc(=O)c(OC)cn1Cc1ccc(F)cc1` [Compound I-0200] has a pIC50 of 7.00 to 8.00.
Work on `COc1cn(Cc2ccccc2)c(N[C@@H]2CCc3ccccc32)nc1=O` [Compound I-0201] yielded a pIC50 of 6.00 to 6.30.
`COc1cn(Cc2ccccc2)c(Nc2ccc(N3CCOCC3)cc2C)nc1=O` [Compound I-0204] was tested, and the pIC50 was 6.30 to 7.00.
`CCOc1cc(C)c(Nc2nc(=O)c(OC)cn2Cc2ccccc2)cc1C` [Compound I-0206] showed a pIC50 of 7.00 to 8.00.
Work on `COc1cc(C)c(Nc2nc(=O)c(OC)cn2Cc2cccc(Cl)c2)cc1OC` [Compound I-0208] yielded a pIC50 greater than 8.00.
With `COc1cc(C)c(Nc2nc(=O)c(F)cn2Cc2ccc(F)cc2)cc1OC` [Compound I-0209] the pIC50 was greater than 8.00.
`CCc1ccc(Nc2nc(=O)c(OC)cn2Cc2ccccc2)c(CC)c1` [Compound I-0210] showed a pIC50 of 7.00 to 8.00.
For `CCc1ccc(CC)c(Nc2nc(=O)c(OC)cn2Cc2ccccc2)c1` [Compound I-0211], the pIC50 was greater than 8.00.
`CCc1c(Nc2nc(=O)c(OC)cn2Cc2ccccc2)cccc1OC` [Compound I-0212] was tested, and the pIC50 was greater than 8.00.
`CCc1c(Nc2nc(=O)c(OC)cn2Cc2ccc(F)cc2)cccc1OC` [Compound I-0213] gave a pIC50 greater than 8.00.
`CCc1c(Nc2nc(=O)c(OC)cn2Cc2cccc(Cl)c2)cccc1OC` [Compound I-0214] showed a pIC50 greater than 8.00.
`CCc1c(Cl)cccc1Nc1nc(=O)c(OC)cn1Cc1ccccc1` [Compound I-0215] showed a pIC50 greater than 8.00.
In the case of `Cc1c(Cl)cccc1Nc1nc(=O)c(C(F)(F)F)cn1Cc1ccccc1` [Compound I-0216], the pIC50 was 6.30 to 7.00.
Work on `COc1cn(Cc2ccccc2)c(Nc2cccc(N(C)C)c2C)nc1=O` [Compound I-0217] yielded a pIC50 of 7.00 to 8.00.
Work on `Cc1cc(C)c(Nc2nc(=O)c(C(=O)NC3CCOCC3)cn2Cc2ccccc2)cc1C` [Compound I-0219] yielded a pIC50 of 7.00 to 8.00.
With `COc1cc(C)c(Nc2nc(=O)c(OC)cn2Cc2ccccc2)cc1C` [Compound I-0220] the pIC50 was greater than 8.00.
For `COc1cn(Cc2ccccc2)c(Nc2cc3[nH]ncc3cc2C)nc1=O` [Compound I-0221], the pIC50 was 7.00 to 8.00.
Work on `COc1cn(Cc2ccc(F)c(F)c2)c(Nc2cccc(Cl)c2C)nc1=O` [Compound I-0222] yielded a pIC50 greater than 8.00.
Molecule `CCc1ccccc1Nc1nc(=O)c(F)cn1Cc1cccc(Cl)c1` [Compound I-0223] has a pIC50 of 7.00 to 8.00.
Molecule `Cc1cccc(Nc2nc(=O)c(F)cn2Cc2cccc(Cl)c2)c1C` [Compound I-0224] has a pIC50 greater than 8.00.
With `CCc1ccccc1Nc1nc(=O)c(OC)cn1Cc1ccc(Cl)c(F)c1` [Compound I-0225] the pIC50 was 6.30 to 7.00.
Molecule `Cc1cc(C)c(Nc2nc(=O)c(C(=O)NCC(=O)N(C)C)cn2Cc2ccccc2)cc1C` [Compound I-0226] has a pIC50 of 7.00 to 8.00.
`COc1ccc(Nc2nc(=O)c(OC)cn2Cc2ccc(F)c(Cl)c2)c(C)c1` [Compound I-0227] showed a pIC50 of 7.00 to 8.00.
`COc1cn(Cc2ccc(F)c(Cl)c2)c(Nc2cc(C(C)C)ccc2C)nc1=O` [Compound I-0228] was tested, and the pIC50 was 7.00 to 8.00.
